# Source: patent publication US20150218516A1, “COMPOSITIONS AND METHODS FOR ENHANCING IMMUNE RESPONSES MEDIATED BY ANTIGEN-PRESENTING CELLS” (The Board of Regents of the University of Nebraska, priority 2007, published 2015)
# “Also recorded” adds a separate entry of the source. Non-standard residues stand in square brackets, D forms with d. Residues, ends and D or L forms follow the SMILES beside them.
# Experiments:
# [1] = system: immunizing peptide and free peptides; assay: ELISA of sera from mice immunized with HBsAg CTL epitope-C5a agonist constructs; type: in vivo; details: sera after three injections
# Protocol: (§1) Groups of six to eight BALB/c mice were given bilateral s.c. injections in the inguinal area with (100 al each side) of a PBS solution containing 50-100 μg of the peptides. Booster injections were given s.c. in the inguinal region at 21-day intervals. Sera for Ab analysis were obtained by retro-orbital bleeds of mice under CO2 narcosis.
# Thus, it was of interest to determine whether sera from mice immunized with the control peptides and epitope-C5a agonist constructs contained Ab directed against any of the peptides. […] (SEQ ID NO:12), […]
# human PMNs = assay: MPO release from human PMNs; type: cell-based
# Protocol: (§2) Statistical analysis of the values obtained from pharmacologic assays was performed using one-way analysis of variance (ANOVA).
# [2] = system: P815S (HBsAg transfectant) target cells; assay: HBsAg-specific CTL response of immunized mice, 51Cr-release cytotoxicity assay; type: in vivo, BALB/c mice; details: for % Specific Lysis: s.c. in PBS
# Protocol: as §1
# Three weeks after secondary) (2° immunization and two weeks after tertiary)(3° immunization, two to three mice from each experimental group were sacrificed by cervical dislocation and their spleens removed aseptically. Pooled splenic single-cell suspensions were prepared in RPMI-1640 medium (Sigma, St. Louis, Mo.) containing 10% FBS (Hyclone, Salt Lake City, Utah) and the following supplements: 10 mM HEPES buffer, 50 μM 2-ME, 2 mM L-glutamine, 50 μg/ml gentamicin sulfate, 100 Um′ penicillin, and 50 μg/ml streptomycin (all supplements from Sigma). This supplemented complete medium is designated RP10-SC. For culture, 75×10^6 pooled spleen cells in 5 ml of RP10-SC were pipetted into a 25 cm^2 T-flask (Corning). Next, 5 ml of RP 10-SC containing 150 nM of synthetic, L^d MHC class I-restricted peptide, […] (SEQ ID NO:12) were added to the flask. The flasks were incubated undisturbed in an upright position at 37° C. in 5% CO2. After 4 days of incubation, the cells were recovered from the T-flasks, washed once by centrifugation in fresh RP10-SC, resuspended in 5 ml RP10-SC, counted, and adjusted to 5×10^6 viable cells/ml.
# The specific cell target used for measuring CTL activity was P815S, a transfectant cell line of P815 (H-2^d) expressing the HBsAg (14). P815S was grown in RP10-SC medium containing 400 μg/ml geneticin disulfate (G418, Sigma). The parental H-2^d mastocytoma cell line, P815 (ATTC #TIB64) grown in RP10-SC medium, was used as a non-specific target for CTL assays to measure % non-specific lysis.
# The target cells, either P815S or P815, were washed 2 times in RP10-SC. For labeling, 5×10^6 target cells were mixed with 250 μCi ^51Cr-sodium chromate[400-1200 Ci (14.8-44.4 TBq)]/[…]; NEN Dupont, Boston, Mass.) in a 1.0 ml volume in a 50 ml conical tube and incubated in a 37° C. water bath for 90 mins. After incubation, the labeled cells were washed 3 times by centrifugation using 15 ml volumes of fresh RP10-SC and allowed to stand at room temperature for 30 mins. The pelleted cells were resuspended in RP10-SC at 1×10^6 cells/ml.
# The recovered splenic effector cells at 5×10^6 cells/ml were serially diluted in triplicate in wells of round-bottom 96 well plates (Corning, 25850) in a total volume of 100 al/well and using RP10-SC as the diluent. Next, 100 μl volumes of ^51Cr-labeled targets, P815S or P815, at 1×10^6 cells/ml were added to the wells. Maximum release (MR) wells contained 100 al of target cells and 100 al of 2% (v/v) Tween 20 while spontaneous release (SR) wells contained labeled cells in medium alone. Effector-to-target ratios of 50:1, 25:1, 12.5:1, and 6.25:1 were routinely employed. The plates were centrifuged at 400×g and incubated at 37° C. in 5% CO2 for 4 hrs. After incubation, the supernatant fractions in the wells were collected using a Skatron Supernatant Collection System (Skatron Instruments, Sterlin, Va.). The amount of ^51Cr radioactivity in the supernatant fractions was measured using a Wallac 1470 Wizard gamma counter (Turku, Finland).
# human umbilical artery = assay: Smooth muscle contraction of human umbilical artery; type: cell-based
# Protocol: as §2
# Caki-1 cells = assay: In vitro cytotoxicity of T lymphocytes cultured with peptide-pulsed dendritic cells against Caki-1; type: cell-based, human; details: cord blood-derived T lymphocytes cultured with dendritic cells exposed to the peptide
# LNCaP cells = system: LNCaP cells
# Protocol: An exemplary in vitro cytotoxicity assay comprises the following steps. Antigen presenting cells, such as dendritic cells, were obtained from bone marrow or blood. Dendritic cells were preferentially differentiated in culture through the addition of IL-4, GM-CSF, and TNFα for 7-10 days. Dendritic cells were then pulsed with peptides for 18 hours. MNCs were also isolated from spleens or blood (e.g., cord or peripheral) and cultured in IL-2 and GM-CSF for 7-10 days for enhanced lymphocyte proliferation. The pulsed dendritic cells were then co-cultured with the lymphocyte-enriched MNCs at a 1:10 ratio for 4 days. Lymphocyte-enriched MNC effector cells were then co-cultured with tumor target cells labeled with the bioactive fluorescent dye Calcein AM for 4 hours. Lysed cells were detected by photometrically measuring the released fluorescent dye.
# Certain prostate carcinomas express prostate-specific membrane antigen (PSMA). […] The fusion peptides were administered to APCs which were subsequently presented to a lymphocyte-enriched population from cord blood as described hereinabove in Example 6. After antigen presentation by pulsed DC in co-culture, CTLs were tested for their ability to lyse three different target cell monolayers in an in vitro cytotoxicity assay. […] The fusion peptides were also administered to APCs which were subsequently presented to a adult peripheral blood-derived CTLs. In vitro cytotoxicity against the human prostate cancer cell line LNCaP was then assessed using the bioactive fluorescent dye calcein AM (FIG. 11D).
# SKmel-28 = assay: In vitro cytotoxicity of T lymphocytes cultured with peptide-pulsed dendritic cells against SKmel-28; type: cell-based, human; details: UCB or PBMC derived T lymphocytes cultured with dendritic cells exposed to the peptide
# Protocol: (§3) The tumor peptide antigen tyrosinase is expressed on more than 70% of human melanoma cells that are human leukocyte antigen (HLA) A2 positive. […] The dendritic cells, presumably expressing the tyrosinase epitope, were then cultured with a lymphocyte-enriched cell population which was then cultured with melanoma cells to determine melanoma cell killing using a cytotoxic T lymphocyte assay.
# [3] = system: A-375 cell line (melanoma); type: cell-based, human
# Protocol: as §3
compound,measurement,setting,value
CC[C@H](C)[C@H](N)C(=O)N1CCC[C@H]1C(=O)N[C@@H](CCC(N)=O)C(=O)N[C@@H](CO)C(=O)N[C@@H](CC(C)C)C(=O)N[C@@H](CC(=O)O)C(=O)N[C@@H](CO)C(=O)N[C@@H](Cc1c[nH]c2ccccc12)C(=O)N[C@@H](Cc1c[nH]c2ccccc12)C(=O)N[C@H](C(=O)N[C@@H](CO)C(=O)N[C@@H](CC(C)C)C(=O)N[C@@H](CCCNC(=N)N)C(=O)N[C@@H](CCCNC(=N)N)C(=O)N[C@@H](Cc1ccc(O)cc1)C(=O)N[C@@H](CO)C(=O)N[C@@H](Cc1ccccc1)C(=O)N[C@@H](CCCCN)C(=O)N1CCC[C@H]1C(=O)N[C@@H](CCSC)C(=O)N1CCC[C@H]1C(=O)N[C@@H](CC(C)C)C(=O)N[C@H](C)C(=O)N[C@@H](CCCNC(=N)N)C(=O)O)[C@@H](C)O (H-IPQSLDSWWTSLRRYSFKPMPL[dA]R-OH),serum binding to free peptides […] or YSFKPMPLaR,[1],did not bind
same,EC50,human PMNs; 50% maximum release of myeloperoxidase,540 nM
same,pD2 ± SE,"human PMNs; −log EC50 (M), mean ± SE, n=3",6.27 ± 0.29
same,% Specific Lysis,"[2]; Effector:Target 6.25:1, boost day 21, spleen cells day 42",9%
same,% Specific Lysis,"[2]; Effector:Target 12.5:1, boost day 21, spleen cells day 42",14%
same,% Specific Lysis,"[2]; Effector:Target 25:1, boost day 21, spleen cells day 42",23%
same,% Specific Lysis,"[2]; Effector:Target 50:1, boost day 21, spleen cells day 42, restimulated 4 days with S28-39",32%
same,Ag-specific CTL response (in words),"[2]; two or three s.c. injections at 21 day intervals, no added adjuvant",significant CTL response; also recorded: generated an Ag-specific CTL response; also recorded: robust CTL activity
same,EC50,human umbilical artery; concentration resulting in 50% maximum contraction,161 nM
same,agonist behaviour relative to natural C5a (in words),human umbilical artery; umbilical artery contraction and MPO release assays,full agonists
same,pD2 ± SE,"human umbilical artery; −log EC50 (M), mean ± SE, n=3",6.79 ± 0.31
CSCC[C@H](NC(=O)[C@H](CC(=O)O)NC(=O)[C@H](CCCCN)NC(=O)[C@H](Cc1ccccc1)NC(=O)[C@H](CO)NC(=O)[C@@H](N)Cc1ccc(O)cc1)C(=O)N1CCC[C@H]1C(=O)N(C)[C@@H](CC(C)C)C(=O)N[C@H](C)C(=O)N[C@@H](CCCNC(=N)N)C(=O)O [YSFKDMP(MeL)aR],cytotoxicity against tyrosinase-negative Caki-1 (in words),Caki-1 cells,incapable of killing
YMNGTMSQV [tyrosinase antigen],cytotoxicity against LNCaP (in words),LNCaP cells,did not exhibit significant cytotoxicity
same,cytotoxicity against SKmel-28 (in words),SKmel-28,minimal cytotoxicity
same,cytotoxicity against A-375 (in words),[3],minimal cytotoxicity
